Measurements: PubChem BioAssay (NCI)
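Values below derive from 48-hour exposures of cells grown in 96-well plates, with endpoints linearly interpolated between the two concentrations bracketing the appropriate inhibition level. TGI: concentration producing complete growth inhibition.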

Test system: HCT-116 colon
Assay: NCI tumour cell line growth inhibition, 48 h

`CC(=O)N[C@@H](Cc1ccc(O)cn1)C(=O)NCc1cccc(Cl)c1` and `COC(=O)C(NC(=O)c1ccccc1)c1ccco1` (centres undefined) cannot be ordered by TGI: > 100 µM for the first, > 100 µM for the second.

`Cc1nn(C(=O)Cc2ccccc2)c2c1C(c1ccc(N(C)C)cc1)SC(N)=N2` (centres undefined) and `CCn1c(SCC(=O)NNC(=S)Nc2ccc(C)cc2)nc2ccccc2c1=O` cannot be ordered by TGI: > 100 µM for the first, > 100 µM for the second.

Compared with `NC(=S)Nc1ccc(S(=O)(=O)Nc2ccc(S(N)(=O)=O)cc2)cc1`, `CCOC(=O)C(Cc1cn(S(=O)(=O)c2ccccc2)c2ccccc12)(NC(C)=O)C(=O)OCC` is lower in TGI: > 100 µM for the first, 95.8 µM for the second.

With `NNc1nncc2n[nH]nc12` the TGI was > 100 µM.

Test system: HCT-15 colon
Assay: NCI tumour cell line growth inhibition, 48 h

First: O=c1c2cc(S(=O)(=O)O)ccc2nc(COc2ccc(Oc3ccc(Cl)cc3Cl)cc2)n1-c1ccc(Cl)cc1Oc1c(Cl)cccc1Cl
Second: Cc1ccc(S(=O)(=O)OC(c2ccc(Cl)cc2Cl)C2OC(=O)c3ccccc32)cc1 (centres undefined)
The TGI of the first is lower: 56.6 µM for the first, > 100 µM for the second.

First: C=C1CCC23CC(CC[C@@H]2[C@@]12C[C@@H](c1ccoc1)OC2=O)OC3=O (some centres undefined)
Second: CC(C)Oc1ccc2c(c1)OCC1Cc3ccccc3OC21 (centres undefined)
The TGI of the first is higher: > 100 µM for the first, 46.2 µM for the second.

`O=C1O/C(=C(/Cl)c2cccc3ccccc23)c2ccccc21` and `COc1ccc(C2C3=C(Nc4ncnn42)c2ccccc2OC3c2ccccc2)cc1` (centres undefined) cannot be ordered by TGI: > 100 µM for the first, > 100 µM for the second.

`COc1cc(OC)c2c(=O)c(OC)c(-c3ccc4c(c3)OCO4)oc2c1` and `COc1ccc(-c2cc(=O)c3ccccc3[nH]2)c(OC)c1` cannot be ordered by TGI: > 100 µM for the first, > 100 µM for the second.

Compared with `CC1(C)CC(=O)C(/C=N/c2nc(-c3ccccc3)cs2)=C(O)C1`, `O=c1[nH]nc(Cc2ccccc2)[nH]1` is higher in TGI: 63.7 µM for the first, > 100 µM for the second.

Going from `N#Cc1nc(C2=C(Cl)c3ccccc3OC2)[nH]c1C#N` to `N#Cc1c(-c2ccccc2)cc(Nc2cccc(C(F)(F)F)c2)n2c1nc1ccccc12`, the TGI falls from > 100 µM to 10.2 µM.

`O=C1C=CC=C/C1=C1\N=C(c2ccccc2OCC(=O)c2ccc(Br)cc2)SS1` and `Cc1nn(C(=O)Cc2ccccc2)c2c1C(c1ccc(N(C)C)cc1)SC(N)=N2` (centres undefined) cannot be ordered by TGI: > 100 µM for the first, > 100 µM for the second.

`c1csc(-c2cc(-c3cccs3)c(-c3ccsc3)s2)c1` and `CCn1c(SCC(=O)NNC(=S)Nc2ccc(C)cc2)nc2ccccc2c1=O` cannot be ordered by TGI: > 100 µM for the first, > 100 µM for the second.

`CC(=O)N[C@@H](Cc1ccc(O)cn1)C(=O)NCc1cccc(Cl)c1` and `COC(=O)C(NC(=O)c1ccccc1)c1ccco1` (centres undefined) cannot be ordered by TGI: > 100 µM for the first, > 100 µM for the second.

`NC(=S)Nc1ccc(S(=O)(=O)Nc2ccc(S(N)(=O)=O)cc2)cc1` and `CCOC(=O)C(Cc1cn(S(=O)(=O)c2ccccc2)c2ccccc12)(NC(C)=O)C(=O)OCC` cannot be ordered by TGI: > 100 µM for the first, > 100 µM for the second.

For `NNc1nncc2n[nH]nc12`, the TGI was > 100 µM.

Test system: HOP-92 NSCLC
Assay: NCI tumour cell line growth inhibition, 48 h

Going from `O=c1c2cc(S(=O)(=O)O)ccc2nc(COc2ccc(Oc3ccc(Cl)cc3Cl)cc2)n1-c1ccc(Cl)cc1Oc1c(Cl)cccc1Cl` to `O=C1O/C(=C(/Cl)c2cccc3ccccc23)c2ccccc21`, the TGI rises from 47.1 µM to > 100 µM.

`C=C1CCC23CC(CC[C@@H]2[C@@]12C[C@@H](c1ccoc1)OC2=O)OC3=O` (some centres undefined) and `CC(C)Oc1ccc2c(c1)OCC1Cc3ccccc3OC21` (centres undefined) cannot be ordered by TGI: > 100 µM for the first, > 100 µM for the second.

`CC1(C)CC(=O)C(/C=N/c2nc(-c3ccccc3)cs2)=C(O)C1` and `O=c1[nH]nc(Cc2ccccc2)[nH]1` cannot be ordered by TGI: > 100 µM for the first, > 100 µM for the second.

Going from `N#Cc1nc(C2=C(Cl)c3ccccc3OC2)[nH]c1C#N` to `N#Cc1c(-c2ccccc2)cc(Nc2cccc(C(F)(F)F)c2)n2c1nc1ccccc12`, the TGI falls from 31 µM to 0.769 µM (40-fold).

`O=C1C=CC=C/C1=C1\N=C(c2ccccc2OCC(=O)c2ccc(Br)cc2)SS1` and `COC(=O)C(NC(=O)c1ccccc1)c1ccco1` (centres undefined) cannot be ordered by TGI: > 100 µM for the first, > 100 µM for the second.

Going from `NC(=S)Nc1ccc(S(=O)(=O)Nc2ccc(S(N)(=O)=O)cc2)cc1` to `CCOC(=O)C(Cc1cn(S(=O)(=O)c2ccccc2)c2ccccc12)(NC(C)=O)C(=O)OCC`, the TGI falls from > 100 µM to 67.1 µM.

Test system: HS 578T breast
Assay: NCI tumour cell line growth inhibition, 48 h

First: O=c1c2cc(S(=O)(=O)O)ccc2nc(COc2ccc(Oc3ccc(Cl)cc3Cl)cc2)n1-c1ccc(Cl)cc1Oc1c(Cl)cccc1Cl
Second: COc1ccc(C2C3=C(Nc4ncnn42)c2ccccc2OC3c2ccccc2)cc1 (centres undefined)
The TGI of the first is lower: 76.3 µM for the first, > 100 µM for the second.

Compared with `O=C1O/C(=C(/Cl)c2cccc3ccccc23)c2ccccc21`, `O=C1C=CC=C/C1=C1\N=C(c2ccccc2OCC(=O)c2ccc(Br)cc2)SS1` is lower in TGI: > 100 µM for the first, 76.2 µM for the second.

Compared with `COc1cc(OC)c2c(=O)c(OC)c(-c3ccc4c(c3)OCO4)oc2c1`, `Cc1nn(C(=O)Cc2ccccc2)c2c1C(c1ccc(N(C)C)cc1)SC(N)=N2` (centres undefined) is higher in TGI: 97.6 µM for the first, > 100 µM for the second.

`N#Cc1nc(C2=C(Cl)c3ccccc3OC2)[nH]c1C#N` and `O=c1[nH]nc(Cc2ccccc2)[nH]1` cannot be ordered by TGI: > 100 µM for the first, > 100 µM for the second.

`c1csc(-c2cc(-c3cccs3)c(-c3ccsc3)s2)c1` and `CCn1c(SCC(=O)NNC(=S)Nc2ccc(C)cc2)nc2ccccc2c1=O` cannot be ordered by TGI: > 100 µM for the first, > 100 µM for the second.

`CC(=O)N[C@@H](Cc1ccc(O)cn1)C(=O)NCc1cccc(Cl)c1` and `COC(=O)C(NC(=O)c1ccccc1)c1ccco1` (centres undefined) cannot be ordered by TGI: > 100 µM for the first, > 100 µM for the second.

In the case of `NNc1nncc2n[nH]nc12`, the TGI is reported as > 100 µM.

Test system: K-562 leukemia
Assay: NCI tumour cell line growth inhibition, 48 h

`O=c1c2cc(S(=O)(=O)O)ccc2nc(COc2ccc(Oc3ccc(Cl)cc3Cl)cc2)n1-c1ccc(Cl)cc1Oc1c(Cl)cccc1Cl` and `Cc1ccc(S(=O)(=O)OC(c2ccc(Cl)cc2Cl)C2OC(=O)c3ccccc32)cc1` (centres undefined) cannot be ordered by TGI: > 100 µM for the first, > 100 µM for the second.

`C=C1CCC23CC(CC[C@@H]2[C@@]12C[C@@H](c1ccoc1)OC2=O)OC3=O` (some centres undefined) and `CC(C)Oc1ccc2c(c1)OCC1Cc3ccccc3OC21` (centres undefined) cannot be ordered by TGI: > 100 µM for the first, > 100 µM for the second.

`O=C1O/C(=C(/Cl)c2cccc3ccccc23)c2ccccc21` and `COc1ccc(C2C3=C(Nc4ncnn42)c2ccccc2OC3c2ccccc2)cc1` (centres undefined) cannot be ordered by TGI: > 100 µM for the first, > 100 µM for the second.

`COc1cc(OC)c2c(=O)c(OC)c(-c3ccc4c(c3)OCO4)oc2c1` and `COc1ccc(-c2cc(=O)c3ccccc3[nH]2)c(OC)c1` cannot be ordered by TGI: > 100 µM for the first, > 100 µM for the second.

`N#Cc1nc(C2=C(Cl)c3ccccc3OC2)[nH]c1C#N` and `O=c1[nH]nc(Cc2ccccc2)[nH]1` cannot be ordered by TGI: > 100 µM for the first, > 100 µM for the second.

`O=C1C=CC=C/C1=C1\N=C(c2ccccc2OCC(=O)c2ccc(Br)cc2)SS1` and `CCn1c(SCC(=O)NNC(=S)Nc2ccc(C)cc2)nc2ccccc2c1=O` cannot be ordered by TGI: > 100 µM for the first, > 100 µM for the second.

`c1csc(-c2cc(-c3cccs3)c(-c3ccsc3)s2)c1` and `COC(=O)C(NC(=O)c1ccccc1)c1ccco1` (centres undefined) cannot be ordered by TGI: > 100 µM for the first, > 100 µM for the second.

`CC(=O)N[C@@H](Cc1ccc(O)cn1)C(=O)NCc1cccc(Cl)c1` and `CCOC(=O)C(Cc1cn(S(=O)(=O)c2ccccc2)c2ccccc12)(NC(C)=O)C(=O)OCC` cannot be ordered by TGI: > 100 µM for the first, > 100 µM for the second.

`NC(=S)Nc1ccc(S(=O)(=O)Nc2ccc(S(N)(=O)=O)cc2)cc1` and `NNc1nncc2n[nH]nc12` cannot be ordered by TGI: > 100 µM for the first, > 100 µM for the second.

Test system: KM12 colon
Assay: NCI tumour cell line growth inhibition, 48 h

`O=c1c2cc(S(=O)(=O)O)ccc2nc(COc2ccc(Oc3ccc(Cl)cc3Cl)cc2)n1-c1ccc(Cl)cc1Oc1c(Cl)cccc1Cl` and `Cc1ccc(S(=O)(=O)OC(c2ccc(Cl)cc2Cl)C2OC(=O)c3ccccc32)cc1` (centres undefined) cannot be ordered by TGI: > 100 µM for the first, > 100 µM for the second.

`C=C1CCC23CC(CC[C@@H]2[C@@]12C[C@@H](c1ccoc1)OC2=O)OC3=O` (some centres undefined) and `CC(C)Oc1ccc2c(c1)OCC1Cc3ccccc3OC21` (centres undefined) cannot be ordered by TGI: > 100 µM for the first, > 100 µM for the second.

Going from `O=C1O/C(=C(/Cl)c2cccc3ccccc23)c2ccccc21` to `COc1ccc(C2C3=C(Nc4ncnn42)c2ccccc2OC3c2ccccc2)cc1` (centres undefined), the TGI falls from > 100 µM to 76.5 µM.

`COc1cc(OC)c2c(=O)c(OC)c(-c3ccc4c(c3)OCO4)oc2c1` and `COc1ccc(-c2cc(=O)c3ccccc3[nH]2)c(OC)c1` cannot be ordered by TGI: > 100 µM for the first, > 100 µM for the second.

`CC1(C)CC(=O)C(/C=N/c2nc(-c3ccccc3)cs2)=C(O)C1` and `O=c1[nH]nc(Cc2ccccc2)[nH]1` cannot be ordered by TGI: > 100 µM for the first, > 100 µM for the second.

Compared with `N#Cc1nc(C2=C(Cl)c3ccccc3OC2)[nH]c1C#N`, `N#Cc1c(-c2ccccc2)cc(Nc2cccc(C(F)(F)F)c2)n2c1nc1ccccc12` is 2.4-fold lower in TGI: 71.9 µM for the first, 30.5 µM for the second.

`O=C1C=CC=C/C1=C1\N=C(c2ccccc2OCC(=O)c2ccc(Br)cc2)SS1` and `Cc1nn(C(=O)Cc2ccccc2)c2c1C(c1ccc(N(C)C)cc1)SC(N)=N2` (centres undefined) cannot be ordered by TGI: > 100 µM for the first, > 100 µM for the second.

`c1csc(-c2cc(-c3cccs3)c(-c3ccsc3)s2)c1` and `CCn1c(SCC(=O)NNC(=S)Nc2ccc(C)cc2)nc2ccccc2c1=O` cannot be ordered by TGI: > 100 µM for the first, > 100 µM for the second.

`CC(=O)N[C@@H](Cc1ccc(O)cn1)C(=O)NCc1cccc(Cl)c1` and `COC(=O)C(NC(=O)c1ccccc1)c1ccco1` (centres undefined) cannot be ordered by TGI: > 100 µM for the first, > 100 µM for the second.
